Toxic doses and inconclusive results are not listed. No stated cut-off is given here; in the data, active means T/C of 150% or more; inactive means T/C below 125%.
Test system: L1210 leukemia ip in BDF1 mice, survival T/C
Experiment: NCI In Vivo Anticancer Drug Screen. Data for tumor model L1210 Leukemia (intraperitoneal) in B6D2F1 (BDF1) mice
Conditions: higher = longer survival
Method in brief: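 Mice bearing the transplanted tumor received compound or vehicle. Survival of the treated group was divided by that of the vehicle-treated control group to give the ratio.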

[1] = endpoint: mean survival time, dose: 100.0 mg/kg/injection, schedule: Q04DX002 (ip), vehicle: Klucel (hydroxypropylcellulose) (HPC)
[2] = endpoint: mean survival time, dose: 200.0 mg/kg/injection, schedule: Q04DX002 (ip), vehicle: Klucel (hydroxypropylcellulose) (HPC)
[3] = endpoint: mean survival time, dose: 400.0 mg/kg/injection, schedule: Q04DX002 (ip), vehicle: Klucel (hydroxypropylcellulose) (HPC)
[4] = endpoint: mean survival time, dose: 100.0 mg/kg/injection, schedule: Q04DX002 (ip), vehicle: saline with Tween-80
[5] = endpoint: mean survival time, dose: 100.0 mg/kg/injection, schedule: Q01DX009 (ip), vehicle: saline with Tween-80
[6] = endpoint: mean survival time, dose: 200.0 mg/kg/injection, schedule: Q01DX009 (ip), vehicle: saline with Tween-80
[7] = endpoint: mean survival time, dose: 400.0 mg/kg/injection, schedule: Q01DX009 (ip), vehicle: saline with Tween-80
[8] = endpoint: mean survival time, dose: 100.0 mg/kg/injection, schedule: Q01DX001 (ip), vehicle: saline

Measured: T/C

O=S(=O)(Nc1ccccc1)c1ccccc1CC(O)(c1ccccc1)c1ccccc1
inactive: endpoint: mean survival time, dose: 100.0 mg/kg/injection, schedule: Q01DX001 (ip), vehicle: steriod suspending solution 95 % of control | endpoint: mean survival time, dose: 200.0 mg/kg/injection, schedule: Q01DX001 (ip), vehicle: steriod suspending solution 93 % of control | endpoint: mean survival time, dose: 400.0 mg/kg/injection, schedule: Q01DX001 (ip), vehicle: steriod suspending solution 87 % of control

CCC(=Nc1ccccc1)Nc1ccccc1
inactive: [1] 106 % of control | [2] 106 % of control | [3] 109 % of control

Cc1c([N+](=O)[O-])cc(C(C)(C)C)c(OS(C)(=O)=O)c1[N+](=O)[O-]
inactive: endpoint: mean survival time, dose: 25.0 mg/kg/injection, schedule: Q04DX002 (ip), vehicle: saline with Tween-80 92 % of control | endpoint: mean survival time, dose: 50.0 mg/kg/injection, schedule: Q04DX002 (ip), vehicle: saline with Tween-80 99 % of control | [4] 96 % of control

CC1=CC(=O)C(=O)C=C1O
inactive: endpoint: mean survival time, dose: 50.0 mg/kg/injection, schedule: Q01DX001 (ip), vehicle: water 103 % of control | endpoint: mean survival time, dose: 100.0 mg/kg/injection, schedule: Q01DX001 (ip), vehicle: water 113 % of control | endpoint: mean survival time, dose: 200.0 mg/kg/injection, schedule: Q01DX001 (ip), vehicle: water 108 % of control | endpoint: mean survival time, dose: 400.0 mg/kg/injection, schedule: Q01DX001 (ip), vehicle: water 110 % of control

Nc1nc2c(nnn2C2CC(O)C(COP(=O)(O)O)O2)c(=O)[nH]1 (stereo unspecified)
inactive: endpoint: mean survival time, dose: 100.0 mg/kg/injection, schedule: Q01DX001 (ip), vehicle: Klucel (hydroxypropylcellulose) (HPC) 96 % of control | endpoint: mean survival time, dose: 200.0 mg/kg/injection, schedule: Q01DX001 (ip), vehicle: Klucel (hydroxypropylcellulose) (HPC) 91 % of control | endpoint: mean survival time, dose: 400.0 mg/kg/injection, schedule: Q01DX001 (ip), vehicle: Klucel (hydroxypropylcellulose) (HPC) 94 % of control

CCCCCCC(=O)N1C(C)CCC1C (stereo unspecified)
inactive: endpoint: mean survival time, dose: 100.0 mg/kg/injection, schedule: Q04DX002 (ip), vehicle: saline 88 % of control | endpoint: mean survival time, dose: 200.0 mg/kg/injection, schedule: Q04DX002 (ip), vehicle: saline 94 % of control | endpoint: mean survival time, dose: 400.0 mg/kg/injection, schedule: Q04DX002 (ip), vehicle: saline 102 % of control

O=C1C(=O)c2ccccc2C(O)=C1C(CCc1ccccc1)C1=C(O)c2ccccc2C(=O)C1=O
inactive: endpoint: mean survival time, dose: 75.0 mg/kg/injection, schedule: Q01DX001 (ip), vehicle: carboxymethylcellulose (CMC) 106 % of control | endpoint: mean survival time, dose: 75.0 mg/kg/injection, schedule: Q01DX001 (ip), vehicle: saline 96 % of control | endpoint: mean survival time, dose: 150.0 mg/kg/injection, schedule: Q01DX001 (ip), vehicle: saline 94 % of control

OCc1cc2ccccc2[nH]1
inactive: [5] 100 % of control | endpoint: mean survival time, dose: 100.0 mg/kg/injection, schedule: Q04DX003 (ip), vehicle: saline with Tween-80 100 % of control | [6] 100 % of control | endpoint: mean survival time, dose: 200.0 mg/kg/injection, schedule: Q04DX003 (ip), vehicle: saline with Tween-80 96 % of control | [7] 101 % of control | endpoint: mean survival time, dose: 400.0 mg/kg/injection, schedule: Q04DX003 (ip), vehicle: saline with Tween-80 100 % of control

COc1cc([C@@H]2c3cc4c(c(O)c3C[C@H]3COC(=O)[C@@H]32)OCO4)cc(OC)c1O
inactive: endpoint: mean survival time, dose: 0.06 mg/kg/injection, schedule: Q01DX Z (ip), vehicle: saline 100 % of control | endpoint: mean survival time, dose: 0.12 mg/kg/injection, schedule: Q01DX Z (ip), vehicle: saline 100 % of control | endpoint: mean survival time, dose: 0.2 mg/kg/injection, schedule: Q01DX001 (ip), vehicle: carboxymethylcellulose (CMC) 119 % of control | endpoint: mean survival time, dose: 0.25 mg/kg/injection, schedule: Q01DX Z (ip), vehicle: saline 100 % of control | endpoint: mean survival time, dose: 0.5 mg/kg/injection, schedule: Q01DX001 (ip), vehicle: carboxymethylcellulose (CMC) 107 % of control | endpoint: mean survival time, dose: 0.5 mg/kg/injection, schedule: Q01DX Z (ip), vehicle: saline 100 % of control | endpoint: mean survival time, dose: 1.0 mg/kg/injection, schedule: Q01DX001 (ip), vehicle: carboxymethylcellulose (CMC) 107 % of control | endpoint: mean survival time, dose: 2.0 mg/kg/injection, schedule: Q01DX001 (ip), vehicle: carboxymethylcellulose (CMC) 111 % of control | endpoint: mean survival time, dose: 3.6 mg/kg/injection, schedule: Q01DX001 (ip), vehicle: carboxymethylcellulose (CMC) 103 % of control | endpoint: mean survival time, dose: 4.0 mg/kg/injection, schedule: Q01DX001 (ip), vehicle: carboxymethylcellulose (CMC) 119 % of control | endpoint: mean survival time, dose: 5.3 mg/kg/injection, schedule: Q01DX001 (ip), vehicle: carboxymethylcellulose (CMC) 108 % of control | endpoint: mean survival time, dose: 8.0 mg/kg/injection, schedule: Q01DX001 (ip), vehicle: carboxymethylcellulose (CMC) 113 % of control | endpoint: median survival time, dose: 0.06 mg/kg/injection, schedule: Q01DX009 (ip), vehicle: Klucel (hydroxypropylcellulose) (HPC) 100 % of control | endpoint: median survival time, dose: 0.12 mg/kg/injection, schedule: Q01DX009 (ip), vehicle: Klucel (hydroxypropylcellulose) (HPC) 100 % of control | endpoint: median survival time, dose: 0.25 mg/kg/injection, schedule: Q01DX009 (ip), vehicle: Klucel (hydroxypropylcellulose) (HPC) 100 % of control | endpoint: median survival time, dose: 0.5 mg/kg/injection, schedule: Q01DX009 (ip), vehicle: Klucel (hydroxypropylcellulose) (HPC) 111 % of control

COCC(=O)OCCCCCOC(=O)COC
inactive: endpoint: mean survival time, dose: 50.0 mg/kg/injection, schedule: Q04DX003 (ip), vehicle: Klucel (hydroxypropylcellulose) (HPC) 104 % of control | endpoint: mean survival time, dose: 100.0 mg/kg/injection, schedule: Q04DX003 (ip), vehicle: Klucel (hydroxypropylcellulose) (HPC) 102 % of control | endpoint: mean survival time, dose: 200.0 mg/kg/injection, schedule: Q04DX003 (ip), vehicle: Klucel (hydroxypropylcellulose) (HPC) 96 % of control | endpoint: mean survival time, dose: 400.0 mg/kg/injection, schedule: Q04DX003 (ip), vehicle: Klucel (hydroxypropylcellulose) (HPC) 88 % of control

Cc1cc(C)cc(-n2cccc2C(=O)O)c1
inactive: [1] 89 % of control | [2] 86 % of control | [3] 96 % of control

O=C(NO)N/N=C/c1ccc(/C=N/NC(=O)NO)cc1
inactive: endpoint: mean survival time, dose: 100.0 mg/kg/injection, schedule: Q01DX001 (ip), vehicle: other 100 % of control | [5] 101 % of control | endpoint: mean survival time, dose: 100.0 mg/kg/injection, schedule: Q04DX003 (ip), vehicle: other 104 % of control | endpoint: mean survival time, dose: 200.0 mg/kg/injection, schedule: Q01DX001 (ip), vehicle: other 100 % of control | [6] 95 % of control | endpoint: mean survival time, dose: 200.0 mg/kg/injection, schedule: Q04DX003 (ip), vehicle: other 95 % of control | endpoint: mean survival time, dose: 400.0 mg/kg/injection, schedule: Q01DX001 (ip), vehicle: other 102 % of control | [7] 101 % of control | endpoint: mean survival time, dose: 400.0 mg/kg/injection, schedule: Q04DX003 (ip), vehicle: other 96 % of control

C=C(C)CCc1ccccc1
inactive: endpoint: mean survival time, dose: 50.0 mg/kg/injection, schedule: Q01DX001 (ip), vehicle: saline 102 % of control | [8] 104 % of control | endpoint: mean survival time, dose: 200.0 mg/kg/injection, schedule: Q01DX001 (ip), vehicle: saline 96 % of control

O=C(c1ccccc1)c1cc2ccccc2n1S(=O)(=O)c1ccccc1
inactive: [1] 95 % of control | [2] 98 % of control | [3] 95 % of control

CC(=O)c1cc(C(C)=O)c2cc(C)cc(O)c2c1O
inactive: [8] 103 % of control

Nc1ccc(I)c(Cl)c1Cl
inactive: [5] 110 % of control | [6] 108 % of control | [7] 102 % of control

COCCN1CCC(CN2c3ccccc3Sc3ccccc32)C1 (stereo unspecified)
inactive: endpoint: mean survival time, dose: 100.0 mg/kg/injection, schedule: Q04DX003 (ip), vehicle: saline 111 % of control

CC(C)CCCC(C)C1CCC2C3CC(=O)OC45CC4CCC5(C)C3CCC12C (stereo unspecified)
inactive: endpoint: mean survival time, dose: 100.0 mg/kg/injection, schedule: Q01DX001 (ip), vehicle: acetone 94 % of control | endpoint: mean survival time, dose: 100.0 mg/kg/injection, schedule: Q01DX009 (ip), vehicle: acetone 89 % of control | endpoint: mean survival time, dose: 200.0 mg/kg/injection, schedule: Q01DX001 (ip), vehicle: acetone 89 % of control | endpoint: mean survival time, dose: 200.0 mg/kg/injection, schedule: Q01DX009 (ip), vehicle: acetone 91 % of control | endpoint: mean survival time, dose: 400.0 mg/kg/injection, schedule: Q01DX001 (ip), vehicle: acetone 91 % of control | endpoint: mean survival time, dose: 400.0 mg/kg/injection, schedule: Q01DX009 (ip), vehicle: acetone 90 % of control

CC(C)CC(CC(C)C)NCCOC(=O)Cc1ccccc1
inactive: endpoint: mean survival time, dose: 75.0 mg/kg/injection, schedule: Q01DX001 (ip), vehicle: other 93 % of control | endpoint: mean survival time, dose: 150.0 mg/kg/injection, schedule: Q01DX001 (ip), vehicle: other 89 % of control

CC(C)(C)CC(O)Cc1ccccc1 (stereo unspecified)
inactive: [4] 93 % of control | endpoint: mean survival time, dose: 200.0 mg/kg/injection, schedule: Q04DX002 (ip), vehicle: saline with Tween-80 93 % of control

Reference: PubChem BioAssay AID248 (DTP/NCI, 2004)
